Test results: publication PMC10044120, “Potent and selective covalent inhibition of the papain-like protease from SARS-CoV-2” (Nature Communications, 2023)
Values joined by “and” are separate entries in the source; they are usually repeats but may differ in a detail not shown here. Equal entries are not always repeated. Where two headings read alike, the source gives them in different places.

Key:
PLpro from SARS-CoV-2 [1] = biological target: T1, PLpro from SARS-CoV-2 (Severe acute respiratory syndrome coronavirus 2, UniProt P0DTD1); assay: biochemical; assay type: biochemical; parameters: mean (kobs plot, Supplementary Figure 6 II): unit: min^-1
PLpro from SARS-CoV-2 [2] = biological target: T1, PLpro from SARS-CoV-2; assay: biochemical; assay type: biochemical
USP7 = biological target: T2, USP7 (Homo sapiens, UniProt Q93009); assay: biochemical; settings: USP7 5 nM, Ub-CHOP2
T2 construct: purchased LifeSensors, Inc. (Malvern, PA)
T2 sequence (Q93009 whole entry): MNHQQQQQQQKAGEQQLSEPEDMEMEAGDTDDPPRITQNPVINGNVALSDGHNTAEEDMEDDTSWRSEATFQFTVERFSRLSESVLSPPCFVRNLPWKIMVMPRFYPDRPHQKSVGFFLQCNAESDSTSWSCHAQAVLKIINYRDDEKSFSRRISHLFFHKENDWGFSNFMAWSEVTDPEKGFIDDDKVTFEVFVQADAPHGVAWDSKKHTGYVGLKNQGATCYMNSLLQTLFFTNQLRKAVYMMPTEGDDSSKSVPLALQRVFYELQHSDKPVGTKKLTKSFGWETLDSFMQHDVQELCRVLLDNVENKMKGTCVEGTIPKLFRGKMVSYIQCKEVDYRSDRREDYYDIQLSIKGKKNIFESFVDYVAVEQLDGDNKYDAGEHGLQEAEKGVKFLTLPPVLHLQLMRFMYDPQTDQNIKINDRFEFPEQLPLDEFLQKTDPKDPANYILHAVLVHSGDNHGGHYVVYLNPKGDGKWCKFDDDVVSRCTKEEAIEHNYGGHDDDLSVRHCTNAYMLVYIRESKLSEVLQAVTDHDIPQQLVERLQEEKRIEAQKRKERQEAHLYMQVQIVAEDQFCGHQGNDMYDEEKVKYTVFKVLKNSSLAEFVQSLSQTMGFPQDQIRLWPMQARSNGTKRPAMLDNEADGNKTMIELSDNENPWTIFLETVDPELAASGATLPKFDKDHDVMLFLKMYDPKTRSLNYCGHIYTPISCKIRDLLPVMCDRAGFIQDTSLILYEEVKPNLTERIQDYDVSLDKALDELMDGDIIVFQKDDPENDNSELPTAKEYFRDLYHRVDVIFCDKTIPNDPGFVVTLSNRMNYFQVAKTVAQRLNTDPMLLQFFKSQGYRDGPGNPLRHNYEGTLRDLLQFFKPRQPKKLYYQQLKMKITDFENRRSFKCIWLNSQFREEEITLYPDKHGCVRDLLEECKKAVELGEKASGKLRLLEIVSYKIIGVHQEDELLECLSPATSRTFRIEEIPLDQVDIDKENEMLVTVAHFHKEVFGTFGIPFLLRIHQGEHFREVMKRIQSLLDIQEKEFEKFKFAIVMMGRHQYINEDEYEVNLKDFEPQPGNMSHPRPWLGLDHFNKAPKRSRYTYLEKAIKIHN

USP4 = biological target: T3, USP4 (Homo sapiens, UniProt Q13107); assay: DUB selectivity assay, USP4 (Ub-rhodamine110); assay type: biochemical; settings: USP4 10 nM, Ub-rhodamine110; read-out: IC50
T3 construct: purchased LifeSensors, Inc. (Malvern, PA)
T3 sequence (Q13107 1-963): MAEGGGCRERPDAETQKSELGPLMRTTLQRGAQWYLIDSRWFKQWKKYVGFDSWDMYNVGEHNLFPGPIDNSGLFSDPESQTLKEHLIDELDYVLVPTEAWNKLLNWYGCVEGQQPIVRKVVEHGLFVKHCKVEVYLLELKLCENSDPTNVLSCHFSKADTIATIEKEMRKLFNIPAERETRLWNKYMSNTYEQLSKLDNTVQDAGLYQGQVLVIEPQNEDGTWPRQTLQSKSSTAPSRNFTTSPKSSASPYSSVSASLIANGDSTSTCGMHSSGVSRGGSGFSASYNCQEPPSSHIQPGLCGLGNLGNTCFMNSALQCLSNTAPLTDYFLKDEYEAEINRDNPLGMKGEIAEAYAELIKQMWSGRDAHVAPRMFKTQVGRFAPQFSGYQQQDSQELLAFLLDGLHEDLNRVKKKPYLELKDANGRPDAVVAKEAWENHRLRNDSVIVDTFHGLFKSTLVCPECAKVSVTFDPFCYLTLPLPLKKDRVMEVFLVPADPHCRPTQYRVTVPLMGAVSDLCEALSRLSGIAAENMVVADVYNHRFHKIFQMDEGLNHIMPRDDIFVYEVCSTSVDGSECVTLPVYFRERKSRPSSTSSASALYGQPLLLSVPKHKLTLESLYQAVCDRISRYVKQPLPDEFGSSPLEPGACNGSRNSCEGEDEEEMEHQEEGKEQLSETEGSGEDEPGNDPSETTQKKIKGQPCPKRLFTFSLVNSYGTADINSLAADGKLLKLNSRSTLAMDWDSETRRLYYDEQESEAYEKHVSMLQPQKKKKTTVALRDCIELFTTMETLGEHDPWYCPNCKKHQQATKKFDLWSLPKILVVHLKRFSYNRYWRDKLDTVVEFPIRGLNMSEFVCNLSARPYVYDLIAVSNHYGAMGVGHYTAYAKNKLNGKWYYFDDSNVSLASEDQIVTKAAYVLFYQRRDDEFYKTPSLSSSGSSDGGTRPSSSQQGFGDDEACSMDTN

SARS-CoV-2 PLpro [3] = biological target: T4, SARS-CoV-2 PLpro (Severe acute respiratory syndrome coronavirus 2, UniProt P0DTD1); assay: biochemical; settings: PLpro 50 nM, Ub-rhodamine110
USP30 = biological target: T5, USP30 (Homo sapiens, UniProt Q70CQ3); assay: biochemical; settings: USP30 10 nM, Ub-rhodamine110
T5 construct: purchased LifeSensors, Inc. (Malvern, PA)
T5 sequence (Q70CQ3 whole entry): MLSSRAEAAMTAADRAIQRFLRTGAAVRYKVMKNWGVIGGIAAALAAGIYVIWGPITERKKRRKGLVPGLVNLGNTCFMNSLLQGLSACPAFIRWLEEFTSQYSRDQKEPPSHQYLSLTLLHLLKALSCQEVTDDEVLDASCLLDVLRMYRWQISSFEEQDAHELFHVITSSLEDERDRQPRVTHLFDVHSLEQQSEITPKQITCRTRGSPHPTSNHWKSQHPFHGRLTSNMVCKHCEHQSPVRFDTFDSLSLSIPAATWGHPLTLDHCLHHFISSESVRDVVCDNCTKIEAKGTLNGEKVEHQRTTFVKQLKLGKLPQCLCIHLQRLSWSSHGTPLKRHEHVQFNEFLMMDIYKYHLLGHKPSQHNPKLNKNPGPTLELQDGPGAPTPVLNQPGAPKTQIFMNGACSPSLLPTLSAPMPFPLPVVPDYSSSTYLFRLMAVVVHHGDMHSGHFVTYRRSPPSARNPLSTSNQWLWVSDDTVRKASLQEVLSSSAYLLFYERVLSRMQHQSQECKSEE

UCHL1 = biological target: T6, UCHL1 (Homo sapiens, UniProt P09936); assay: biochemical; settings: UCHL1 10 nM, Ub-rhodamine110
T6 construct: purchased LifeSensors, Inc. (Malvern, PA)
T6 sequence (P09936 whole entry): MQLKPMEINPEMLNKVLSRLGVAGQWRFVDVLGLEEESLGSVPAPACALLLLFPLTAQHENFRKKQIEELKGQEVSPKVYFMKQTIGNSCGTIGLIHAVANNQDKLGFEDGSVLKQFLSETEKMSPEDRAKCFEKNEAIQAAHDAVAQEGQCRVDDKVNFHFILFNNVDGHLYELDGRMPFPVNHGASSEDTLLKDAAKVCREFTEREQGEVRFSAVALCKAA

[4] = system: SARS-CoV-2 isolate USA-WA1/2020; assay: microbe, parasite or virus in culture
[5] = system: SARS-CoV-2 isolate USA-WA1/2020; settings: read-out: cytopathic effect, % cell viability, duplicate wells
PLpro = PLpro (Severe acute respiratory syndrome coronavirus 2, UniProt P0DTD1); assay: Intact protein ESI-MS to assess covalent adduct formation; assay type: binding, SARS-CoV-2; parameters: unit not given here
[6] = Metabolic stability in human liver microsomes
SARS-CoV-2 PLpro [7] = biological target: T4, SARS-CoV-2 PLpro; assay: biochemical; settings: PLpro 10 nM, ISG15-CHOP2
[8] = Metabolic stability in rat liver microsomes; settings: Sprague-Dawley

C[C@@H](NC(=O)c1ccccc1CCC(=O)NNC(=O)CCl)c1cccc2ccccc12 [Compound 9, (R)-2-(3-(2-(2-chloroacetyl)hydrazineyl)-3-oxopropyl)-N-(1-(naphthalen-1-yl)ethyl)benzamide]
remaining activity at 5 µM (PLpro from SARS-CoV-2 [1]; […], read-out: PLpro activity after preincubation, inhibitor 5 uM, preincubation 90 min): 9.23% | remaining activity at 8 µM (PLpro from SARS-CoV-2 [1]; […], read-out: PLpro activity after preincubation, inhibitor 8 uM, preincubation 45 min): 12.3% | remaining activity at 10 µM (PLpro from SARS-CoV-2 [1]; […], read-out: PLpro activity after preincubation, inhibitor 10 uM, preincubation 15 min): 49.7% | remaining activity at 10 µM (PLpro from SARS-CoV-2 [1]; […], read-out: PLpro activity after preincubation, inhibitor 10 uM, preincubation 45 min): 14.1% | remaining activity at 15 µM (PLpro from SARS-CoV-2 [1]; […], read-out: PLpro activity after preincubation, inhibitor 15 uM, preincubation 15 min): 40.2% | remaining activity at 15 µM (PLpro from SARS-CoV-2 [1]; […], read-out: PLpro activity after preincubation, inhibitor 15 uM, preincubation 45 min): 10.8% | remaining activity at 15 µM (PLpro from SARS-CoV-2 [1]; […], read-out: PLpro activity after preincubation, inhibitor 15 uM, preincubation 90 min): 12.6% | remaining activity at 25 µM (PLpro from SARS-CoV-2 [1]; […], read-out: PLpro activity after preincubation, inhibitor 25 uM, preincubation 15 min): 17.8% | remaining activity at 25 µM (PLpro from SARS-CoV-2 [1]; […], read-out: PLpro activity after preincubation, inhibitor 25 uM, preincubation 90 min): 10.7% | remaining activity at 30 µM (PLpro from SARS-CoV-2 [1]; […], read-out: PLpro activity after preincubation, inhibitor 30 uM, preincubation 15 min): 29.9% | remaining activity at 30 µM (PLpro from SARS-CoV-2 [1]; […], read-out: PLpro activity after preincubation, inhibitor 30 uM, preincubation 45 min): 6.98% | remaining activity at 36 µM (PLpro from SARS-CoV-2 [1]; […], read-out: PLpro activity after preincubation, inhibitor 36 uM, preincubation 15 min): 18% | remaining activity at 36 µM (PLpro from SARS-CoV-2 [1]; […], read-out: PLpro activity after preincubation, inhibitor 36 uM, preincubation 45 min): 6.34% | Time dep. (time-dependent inhibition) (PLpro from SARS-CoV-2 [1]; fluorogenic peptide assay, varied preincubation time): Yes | mean (kobs plot, Supplementary Figure 6 II) (PLpro from SARS-CoV-2 [1]; inhibitor 1 uM): 0.0070 | mean (kobs plot, Supplementary Figure 6 II) (PLpro from SARS-CoV-2 [1]; inhibitor 2 uM): 0.0147 | mean (kobs plot, Supplementary Figure 6 II) (PLpro from SARS-CoV-2 [1]; inhibitor 4 uM): 0.0210 | mean (kobs plot, Supplementary Figure 6 II) (PLpro from SARS-CoV-2 [1]; inhibitor 5 uM): 0.0344 | mean (kobs plot, Supplementary Figure 6 II) (PLpro from SARS-CoV-2 [1]; inhibitor 8 uM): 0.0503 | mean (kobs plot, Supplementary Figure 6 II) (PLpro from SARS-CoV-2 [1]; inhibitor 10 uM): 0.0558 | mean (kobs plot, Supplementary Figure 6 II) (PLpro from SARS-CoV-2 [1]; inhibitor 13 uM): 0.0770 | mean (kobs plot, Supplementary Figure 6 II) (PLpro from SARS-CoV-2 [1]; inhibitor 15 uM): 0.0658 | mean (kobs plot, Supplementary Figure 6 II) (PLpro from SARS-CoV-2 [1]; inhibitor 25 uM): 0.0896 | mean (kobs plot, Supplementary Figure 6 II) (PLpro from SARS-CoV-2 [1]; inhibitor 30 uM): 0.0802 | mean (kobs plot, Supplementary Figure 6 II) (PLpro from SARS-CoV-2 [1]; inhibitor 36 uM): 0.0968 | remaining activity at 6.34 µM (PLpro from SARS-CoV-2 [2]; 0.5 h, inhibitor 6.34 uM): 38.1% | remaining activity at 20 µM (PLpro from SARS-CoV-2 [2]; 0.5 h, inhibitor 20.00 uM): 17.8% | IC50 (PLpro from SARS-CoV-2 [2]; after 30-min incubation, purified PLpro, Z-RLRGG-AMC substrate): 5.4 µM | IC50 (USP7): > 30 µM | IC50 (USP4): > 30 µM | Hill slope (SARS-CoV-2 PLpro [3]): 0.705 | IC50 (SARS-CoV-2 PLpro [3]): 1.96 µM | IC50 (USP30): > 30 µM | IC50 (UCHL1): > 30 µM | EC50 ([4]; Severe acute respiratory syndrome coronavirus 2, Vero C1008, 48 h, read-out: EC50 (cytopathic effect)): 34 µM | inhibition at […] ([4]; Severe acute respiratory syndrome coronavirus 2, Vero C1008, read-out: cytopathic effect, % cell viability): 17.4% and 13.2% | inhibition at 2.08 µM ([4]; Severe acute respiratory syndrome coronavirus 2, Vero C1008, read-out: cytopathic effect, % cell viability, [inhibitor] 2.08 uM, duplicate wells): 10.7% | inhibition at 8.33 µM ([4]; Severe acute respiratory syndrome coronavirus 2, Vero C1008, read-out: cytopathic effect, % cell viability, [inhibitor] 8.33 uM, duplicate wells): 26.9% | inhibition at 16.65 µM ([4]; Severe acute respiratory syndrome coronavirus 2, Vero C1008, read-out: cytopathic effect, % cell viability, [inhibitor] 16.65 uM, duplicate wells): 19.8% | inhibition ([5]; [inhibitor] 2.08 uM, 2.08 µM): 12% | inhibition ([5]; [inhibitor] 8.33 uM, 8.33 µM): 17.9% | inhibition ([5]; [inhibitor] 16.65 uM, 16.65 µM): 21% | Measured adduct mass (PLpro): 401 | half-life [6]: 7 min | microsomal CLint [6]: 975 µL/min/mg | Hill slope (SARS-CoV-2 PLpro [7]): 0.817 | IC50 (SARS-CoV-2 PLpro [7]): 20.2 µM | half-life [8]: 13 min | microsomal CLint [8]: 515 µL/min/mg
